Source: ChEMBL document CHEMBL1130869, “Peptide-based inhibitors of the hepatitis C virus serine protease” (Bioorg Med Chem Lett, 1998)
Starred links: 1 amine or outer side, 2 acyl side, 3 side chain; linkers in the order of their positions; H or OH if unused. Non-standard residues stand in square brackets, D forms with d. Residues, ends and D or L forms follow the SMILES beside them. Pen = CC(C)(S)[C@H](N)C(=O)O; Suc = O=C(CCC(=O)[*:2])[*:1]; Tle = CC(C)(C)[C@H](N)C(=O)O; Dap = NC[C@H](N)C(=O)O

Each molecule was assayed against NS3 (Hepatitis C virus, UniProt A3EZJ3) (assay: Inhibitory activity against NS3-4A pep protease). Conditions: not given.
Parameters: species or system Hepacivirus hominis

Sequence of NS3 (A3EZJ3 whole entry): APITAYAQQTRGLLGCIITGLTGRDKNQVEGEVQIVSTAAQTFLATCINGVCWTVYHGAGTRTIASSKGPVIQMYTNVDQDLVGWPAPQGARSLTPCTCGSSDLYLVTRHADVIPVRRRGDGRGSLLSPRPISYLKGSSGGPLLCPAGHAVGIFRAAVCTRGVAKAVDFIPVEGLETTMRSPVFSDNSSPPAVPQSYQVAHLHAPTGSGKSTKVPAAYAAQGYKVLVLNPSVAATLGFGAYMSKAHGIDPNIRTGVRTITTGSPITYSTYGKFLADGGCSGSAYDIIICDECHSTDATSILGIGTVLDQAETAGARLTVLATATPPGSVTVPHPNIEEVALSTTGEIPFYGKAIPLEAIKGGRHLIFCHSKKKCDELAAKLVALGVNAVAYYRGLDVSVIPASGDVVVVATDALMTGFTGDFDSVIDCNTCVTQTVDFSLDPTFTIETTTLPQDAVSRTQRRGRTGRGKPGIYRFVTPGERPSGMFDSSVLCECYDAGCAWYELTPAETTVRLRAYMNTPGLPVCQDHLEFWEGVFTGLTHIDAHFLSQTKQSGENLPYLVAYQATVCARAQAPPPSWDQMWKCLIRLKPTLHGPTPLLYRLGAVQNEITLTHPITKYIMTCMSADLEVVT

| Molecule | IC50 |
| --- | --- |
| CC[C@H](C)[C@H](NC(=O)[C@@H](NC(=O)[C@H](CC(=O)O)NC(C)=O)C(C)C)C(=O)N[C@H](C(=O)N1CCC[C@H]1C(=O)N[C@@H](CS)C(=O)O)C(C)C | 52 µM |
| CC[C@H](C)[C@H](NC(=O)[C@H](CC(=O)O)NC(=O)CCC(=O)O)C(=O)N[C@H](C(=O)N1CCC[C@H]1C(=O)N[C@@H](CS)C(=O)O)C(C)C | 33 µM |
| CC[C@H](C)[C@H](NC(=O)[C@H](CC(=O)O)NC(=O)[C@H](C)NC(C)=O)C(=O)N[C@H](C(=O)N1CCC[C@H]1C(=O)N[C@@H](CS)C(=O)O)C(C)C | 200 µM |
| CC[C@@H](C)[C@@H](NC(=O)[C@H](CC(=O)O)NC(=O)[C@H](CC(=O)O)NC(C)=O)C(=O)N[C@H](C(=O)N1CCC[C@H]1C(=O)N[C@@H](CS)C(=O)O)C(C)C | 800 µM |
| CC[C@H](C)[C@H](NC(=O)[C@H](CC(=O)O)NC(=O)[C@@H](CC(=O)O)NC(C)=O)C(=O)N[C@H](C(=O)N1CCC[C@H]1C(=O)N[C@@H](CS)C(=O)O)C(C)C | 40 µM |
| CC[C@H](C)[C@H](NC(=O)[C@H](CC(=O)O)NC(=O)[C@H](CC(=O)O)NC(C)=O)C(=O)N[C@H](C(=O)N1CCC[C@H]1C(=O)N[C@@H](CS)C(=O)O)C(C)C [listing 1 of 2 here] | 28 µM |
| CC[C@H](C)[C@H](NC(=O)[C@H](CC(=O)O)NC(=O)[C@H](CC(=O)O)NC(C)=O)C(=O)N[C@H](C(=O)N1CCC[C@H]1C(=O)N[C@@H](CS)C(=O)O)C(C)C [listing 2 of 2 here] | > 1000 µM |
| CC[C@H](C)[C@H](NC(=O)[C@H](CC(=O)O)NC(=O)[C@H](CC(=O)O)NC(C)=O)C(=O)N[C@H](C(=O)N1CCC[C@H]1C(=O)N[C@@H](CSC)C(=O)O)C(C)C (Ac-DDIVPC(Me)-OH) | 160 µM |
| CC[C@H](C)[C@H](NC(=O)[C@H](CC(=O)O)NC(=O)[C@H](CC(=O)O)NC(C)=O)C(=O)N[C@H](C(=O)N1CCC[C@H]1C(=O)N[C@@H](CN)C(=O)O)C(C)C (Ac-DDIVP[Dap]-OH) | > 1000 µM |
| CC[C@H](C)[C@H](NC(=O)[C@H](CC(=O)O)NC(=O)[C@H](CC(=O)O)NC(C)=O)C(=O)N[C@H](C(=O)N1CCC[C@H]1C(=O)N[C@H](C(=O)O)C(C)(C)S)C(C)C (Ac-DDIVP[Pen]-OH) | 630 µM |
| CC[C@H](C)[C@H](NC(=O)[C@@H](NC(=O)[C@H](CC(=O)O)NC(C)=O)C(C)(C)C)C(=O)N[C@H](C(=O)N1CCC[C@H]1C(=O)N[C@@H](CS)C(=O)O)C(C)C (Ac-D[Tle]IVPC-OH) | 20 µM |
| CC[C@H](C)[C@H](NC(=O)CCC(=O)O)C(=O)N[C@H](C(=O)N1CCC[C@H]1C(=O)N[C@@H](CS)C(=O)O)C(C)C (Suc-IVPC-OH) | 830 µM |
| CC[C@H](C)[C@H](NC(=O)C(CC(=O)O)NC(=O)[C@H](CC(=O)O)NC(C)=O)C(=O)N[C@H](C(=O)N1CCC[C@H]1C(=O)N[C@@H](CS)C(=O)O)C(C)C (single isomer, unassigned) | 4 µM |
| CC[C@H](C)[C@H](NC(=O)[C@H](CC(=O)O)NC(=O)[C@H](CC(=O)O)NC(C)=O)C(=O)N[C@H](C(=O)N1CCC[C@H]1C(=O)NC(CS)C(=O)O)C(C)C (single isomer, unassigned) | 330 µM |
| CC[C@H](C)[C@H](NC(=O)[C@H](CC(=O)O)NC(=O)[C@H](CC(=O)O)NC(C)=O)C(=O)NC(C(=O)N1CCC[C@H]1C(=O)N[C@@H](CS)C(=O)O)C(C)C (single isomer, unassigned) | 830 µM |
| CC[C@H](C)[C@H](NC(=O)C(CC(=O)O)NC(=O)[C@H](C)NC(C)=O)C(=O)N[C@H](C(=O)N1CCC[C@H]1C(=O)N[C@@H](CS)C(=O)O)C(C)C (single isomer, unassigned) | 200 µM |
| CC[C@H](C)[C@H](NC(=O)C(CC(=O)O)NC(=O)CCC(=O)O)C(=O)N[C@H](C(=O)N1CCC[C@H]1C(=O)N[C@@H](CS)C(=O)O)C(C)C (single isomer, unassigned) | 76 µM |
| CC[C@H](C)[C@H](NC(=O)C(NC(=O)[C@H](CC(=O)O)NC(C)=O)C(C)C)C(=O)N[C@H](C(=O)N1CCC[C@H]1C(=O)N[C@@H](CS)C(=O)O)C(C)C (single isomer, unassigned) | 7.5 µM |
| Ac-DAIVPC-OH | 140 µM |
| Ac-DDAVPC-OH | 580 µM |
| Ac-DDIAPC-OH | 890 µM |
| Ac-DDIVAC-OH | 93 µM |
| Ac-DDIVPA-OH | 710 µM |
| Ac-DDIVPM-OH | 500 µM |
| Ac-DDIVPS-OH | > 1000 µM |
| Ac-DIVPC-OH | 130 µM |
| H-DDIVPC-OH | 71 µM |
| H-GEAGDDIVPC-OH | 52 µM |

What follows are molecules tested against Hepatitis C virus serine protease, NS3/NS4A (Hepatitis C virus, UniProt A3EZI9+D2K2A8) (assay: The apparent Ki value against NS3-4Apep protease). Conditions: read-out: Ki app.
Format: protein-complex assay, Hepacivirus hominis

Sequence of Hepatitis C virus serine protease, NS3/NS4A (D2K2A8 whole entry): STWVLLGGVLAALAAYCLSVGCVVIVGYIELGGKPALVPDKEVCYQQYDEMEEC
Sequence of Hepatitis C virus serine protease, NS3/NS4A (A3EZI9 whole entry): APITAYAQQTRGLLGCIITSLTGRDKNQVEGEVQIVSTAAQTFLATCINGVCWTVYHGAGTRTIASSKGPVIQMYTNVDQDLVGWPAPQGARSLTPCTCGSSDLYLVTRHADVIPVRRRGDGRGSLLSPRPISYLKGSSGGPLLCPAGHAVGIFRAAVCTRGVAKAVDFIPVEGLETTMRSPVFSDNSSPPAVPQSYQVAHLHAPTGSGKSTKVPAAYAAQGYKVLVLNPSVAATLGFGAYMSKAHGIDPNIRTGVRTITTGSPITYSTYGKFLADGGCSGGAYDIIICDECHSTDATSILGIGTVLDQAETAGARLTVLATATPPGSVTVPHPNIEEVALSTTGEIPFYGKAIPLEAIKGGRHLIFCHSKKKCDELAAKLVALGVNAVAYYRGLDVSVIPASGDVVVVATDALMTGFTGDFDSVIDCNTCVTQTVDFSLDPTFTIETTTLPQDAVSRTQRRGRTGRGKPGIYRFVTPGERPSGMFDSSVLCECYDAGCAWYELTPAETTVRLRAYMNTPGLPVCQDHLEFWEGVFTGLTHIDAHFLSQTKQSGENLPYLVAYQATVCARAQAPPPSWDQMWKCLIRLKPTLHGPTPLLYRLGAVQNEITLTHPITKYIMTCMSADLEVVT

| Molecule | Ki |
| --- | --- |
| CC[C@H](C)[C@H](NC(=O)C(CC(=O)O)NC(=O)[C@H](CC(=O)O)NC(C)=O)C(=O)N[C@H](C(=O)N1CCC[C@H]1C(=O)N[C@@H](CS)C(=O)O)C(C)C (single isomer, unassigned) | 0.6 µM |
| H-DDIVPC-OH | 14 µM |
